Like-named read-outs stand apart in the source and are kept apart here.
Legend:
[1] = tested on: HepG2 cells, primary human hepatocytes; settings: In vitro Assay; ref Garside 2014; cited from earlier work
[2] = tested on: isolated mouse liver mitochondria; settings: In vitro Assay; ref Porceddu 2012; cited from earlier work
[3] = tested on: HepG2 cells; settings: In vitro Assay; ref Tolosa 2012; cited from earlier work
[4] = ref Chen 2011; cited from earlier work
[5] = tested on: HepG2 cells; settings: cited from earlier work; for Structural based (HCI): In vitro Assay, ref O'Brien 2006
[6] = tested on: human hepatocytes; settings: In vitro Assay; ref Xu 2008; cited from earlier work
[7] = cited from earlier work
[8] = cited from earlier work; remark: listed apart in the source
[9] = tested on: hLiMTs; settings: cited from earlier work; for hLiMTs ATP <100uM: In vitro Assay, ref Proctor 2017
[10] = tested on: PHH; settings: cited from earlier work; for PHH ATP <100uM: In vitro Assay, ref Proctor 2017
[11] = tested on: hu-MPCC; settings: In vitro Assay; ref Khetani 2012; cited from earlier work
[12] = tested on: rBsep; settings: In vitro Assay; ref Dawson 2012; cited from earlier work
[13] = tested on: Upcyte human hepatocytes; settings: In vitro Assay; ref Tolosa 2019; cited from earlier work
[14] = tested on: HepG2 cells; settings: cited from earlier work; for Cluser analysis / Structural based (HCI): In vitro Assay, ref Persson 2013
[15] = tested on: RMPCC's; settings: In vitro Assay; ref Khetani 2012; cited from earlier work
[16] = tested on: hLiMTs; experiment: Combined HCI (HCS) and cellular ATP 3D assay in hLiMTs; settings: for AC50 / minimal effective concentration: Homo sapiens
[17] = tested on: hLiMTs
[18] = tested on: primary human hepatocytes, NIH3T3 fibroblasts, BSEP, CYP3A4; settings: cited from earlier work
[19] = tested on: THLE-Null and THLE-3A4 cells; settings: In vitro Assay; ref Gustafsson 2014; cited from earlier work
[20] = tested on: PHH spheroids; settings: cited from earlier work
[21] = Plasma free fraction (fu) and unbound Cmax (Cmax,u); format: in vitro ADME, human; settings: unbound plasma Cmax
Method: The prediction of DILI severity was evaluated further using the 3D combined HCI assays using plasma-free fraction. The majority of fu values were obtained from literature, when unavailable in-house prediction was utilised. Unbound plasma Cmax concentrations (Cmax,u) were derived by multiplying total plasma Cmax with the corresponding free fraction (fu) for each compound.

[22] = tested on: HepaRG spheroids; experiment: Combined HCI (HCS) and cellular ATP 3D assay in HepaRG spheroids; settings: HepaRG; for AC50 / minimal effective concentration: Homo sapiens
[23] = read-out: Human plasma Cmax; total plasma Cmax.tot, median of 9 literature references; cited from earlier work
[24] = tested on: HepaRG spheroids
[25] = plasma free fraction; cited from earlier work

C[C@@H]1C[C@H]2[C@@H]3CCC4=CC(=O)C=C[C@]4(C)[C@@]3(F)[C@@H](O)C[C@]2(C)[C@@]1(O)C(=O)CO [dexamethasone]
Cluster 1-6 +VE Assay [1]: -VE
in vitro data EC2<=1x Cmax [2]: -VE
in vitro data EC20<=2uM [2]: -VE
Structural based (HCI) [3]: -VE
DILI Score (FDA) (1-8) [4]: 3
Structural based (HCI) [5]: -VE
Structural based (HCI) [6]: -VE
In vivo DILI ([7]; […]): -VE
In vivo DILI ([7]; ref Dawson 2012): -VE
In vivo DILI ([7]; ref Garside 2014): -VE
In vivo DILI ([7]; ref Gustafsson 2014): -VE
In vivo DILI ([7]; ref Khetani 2012): -VE
In vivo DILI ([7]; ref O'Brien 2006): -VE
In vivo DILI ([7]; ref Persson 2013): -VE
In vivo DILI ([7]; ref Porceddu 2012): +VE
In vivo DILI ([7]; ref Proctor 2017): -VE
In vivo DILI ([7]; ref Tolosa 2012): -VE
In vivo DILI ([7]; ref Tolosa 2019): -VE
In vivo DILI ([7]; ref Williams 2019): -VE
In vivo DILI ([7]; ref Xu 2008): -VE
DILI +VE (5-8), DILI -VE (-4) ([8]; ref Chen 2016): -VE
DILI severity category ([8]; ref Chen 2016): Ambiguous DILI-concern
hLiMTs ATP <100uM [9]: -VE
PHH ATP <100uM [10]: -VE
HMPCC's [11]: -VE
Inhibition of rBsep cutoff<1& cmax u>.2 [12]: -VE
Inhibition of rBsep cutoff<3 [12]: +VE
Upcytes multi donor assay 14day data [13]: -VE
Cluser analysis [14]: -VE
Structural based (HCI) [14]: -VE
RMPCC's [15]: -VE

CC(=O)N1CCN(c2ccc(OCC3COC(Cn4ccnc4)(c4ccc(Cl)cc4Cl)O3)cc2)CC1 (stereo not shown) [ketoconazole, reference compound]
AC50 ([16]; read-out: ATP endpoint AC50): 9.09 µM
minimal effective concentration ([16]; read-out: ATP endpoint MEC): 6.84 µM
AC50 ([16]; read-out: HCS endpoint AC50): 12.4 µM
minimal effective concentration ([16]; read-out: HCS endpoint MEC): 5.88 µM
hLiMTs <25x Avg Cmax ATP ([16]; hLiMTs, ATP endpoint, cut-off <25x Avg Cmax): +ve
hLiMTs <100x Avg Cmaxu ATP ([16]; hLiMTs, ATP endpoint, cut-off <100x Avg Cmaxu): +ve (<100x Avg Cmaxu)
hLiMTs <25x Avg Cmax HCS ([16]; hLiMTs, HCS endpoints, cut-off <25x Avg Cmax): +ve
hLiMTs <100x Avg Cmaxu HCS ([16]; hLiMTs, HCS endpoints, cut-off <100x Avg Cmaxu): +ve (<100x Avg Cmaxu)
hLiMTs <25x Avg Cmax All ([16]; hLiMTs, all endpoints (ATP and HCS), cut-off <25x Avg Cmax): +ve
hLiMTs Cmax max All ([16]; hLiMTs, all endpoints, Cmax max used): +ve
hLiMTs Cmax min All ([16]; hLiMTs, all endpoints, Cmax min used): +ve
hLiMTs <10 uM All ([16]; hLiMTs, all endpoints, cut-off <10 uM): +ve (<10 uM)
hLiMTs <100x Avg Cmaxu All ([16]; hLiMTs, all endpoints, cut-off <100x Avg Cmaxu): +ve (<100x Avg Cmaxu)
Cluster 1-6 +VE Assay [1]: +VE
DILI prediction hLiMTs (HCS-MEC) [17]: +VE (key: +VE: MEC < 25 × Cmax.tot cut-off)
Cellular toxicity (3T3 cells) [18]: -VE
Combined Assay [18]: +VE
DILI in vitro assay prediction, Schadt (2015) [18]: +VE
GSH adduct HML [18]: -VE
Hepatocyte cellular toxicity [18]: +VE
MitoTox 3T3 [18]: -VE
TDI CYP3A4 [18]: -VE
hBSEP inhibition [18]: +VE
THLE-Null [19]: +VE
in vitro data EC2<=1x Cmax [2]: +VE
in vitro data EC20<=2uM [2]: -VE
DILI Score (FDA) (1-8) [4]: 8
Structural based (HCI) [5]: +VE
DILI in vitro assay prediction, O'Brien (2006) ([5]; Structural based (HCI), HepG2, ref O'Brien et al. 2006): +VE (lowest HCI endpoint IC50 (or in the absence of dose–response < 100 µM) < 30 × total human plasma exposure levels (Cmax.tot))
hLiMTs ATP <20 x Cmax ([20]; In vitro Assay, ref Vorrink 2018): +VE (IC20 < 20 × Cmax.tot cut-off)
DILI in vitro assay prediction, Vorrink (2018) ([20]; PHH spheroids, ATP, 14 days, IC20 < 20 × Cmax.tot, ref Vorrink et al. 2018): +VE (IC20 < 20 × Cmax.tot cut-off)
Assigned DILI category ([7]; Chen et al. 2016 or literature alignment, ref Chen et al. 2016): 3
In vivo DILI ([7]; […]): +VE
In vivo DILI ([7]; ref Albrecht 2019): +VE
In vivo DILI ([7]; ref Aleo 2019): +VE
In vivo DILI ([7]; ref Dawson 2012): +VE
In vivo DILI ([7]; ref Garside 2014): +VE
In vivo DILI ([7]; ref Gustafsson 2014): +VE
In vivo DILI ([7]; ref O'Brien 2006): +VE
In vivo DILI ([7]; ref Persson 2013): +VE
In vivo DILI ([7]; ref Porceddu 2012): +VE
In vivo DILI ([7]; ref Proctor 2017): +VE
In vivo DILI ([7]; ref Schadt 2015): +VE
In vivo DILI ([7]; ref Tolosa 2019): +VE
In vivo DILI ([7]; ref Vorrink 2018): +VE
In vivo DILI ([7]; ref Williams 2019): +VE
DILI severity category (Chen et al. [2016]) ([8]; LTKB DILIrank category, ref Chen et al. 2016): Most
DILI severity category (Chen 2016) ([8]; human DILI classification, LTKB DILIrank, ref Chen et al. 2016): Most
DILI severity category ([8]; human DILI severity, ref Chen et al.): Most
DILI +VE (5-8), DILI -VE (-4) ([8]; ref Chen 2016): +VE
DILI severity category ([8]; ref Chen 2016): vMost-DILI-Concern
hLiMTs ATP <100uM [9]: +VE (IC50 threshold of 100 µM)
hLiMTs/100uM, Proctor (2017) ([9]; hLiMTs, ATP, IC50 threshold 100 µM, ref Proctor et al. 2017): +VE (IC50 threshold of 100 µM)
PHH/100uM, Proctor (2017) ([10]; 2D PHH, ATP, IC50 threshold 100 µM, ref Proctor et al. 2017): +VE (IC50 threshold of 100 µM)
PHH ATP <100uM [10]: +VE (IC50 threshold of 100 µM)
Human plasma Cmax,u [21]: 0.565 µM
HepaRG <25x Avg Cmax ATP ([22]; ATP endpoint, cut-off <25x Avg Cmax): +ve
HepaRG <100x Avg Cmaxu ATP ([22]; ATP endpoint, cut-off <100x Avg Cmaxu): +ve (<100x Avg Cmaxu)
HepaRG <25x Avg Cmax HCS ([22]; HCS endpoints, cut-off <25x Avg Cmax): +ve
HepaRG <100x Avg Cmaxu HCS ([22]; HCS endpoints, cut-off <100x Avg Cmaxu): +ve (<100x Avg Cmaxu)
HepaRG <25x Avg Cmax All ([22]; all endpoints (ATP and HCS), cut-off <25x Avg Cmax): +ve
HepaRG Cmax max All ([22]; all endpoints, Cmax max used): +ve
HepaRG Cmax min All ([22]; all endpoints, Cmax min used): +ve
HepaRG <10 uM All ([22]; all endpoints, cut-off <10 uM): +ve (<10 uM)
HepaRG <100x Avg Cmaxu All ([22]; all endpoints, cut-off <100x Avg Cmaxu): +ve (<100x Avg Cmaxu)
AC50 ([22]; read-out: ATP endpoint AC50): 8.42 µM
minimal effective concentration ([22]; read-out: ATP endpoint MEC): 7.27 µM
AC50 ([22]; read-out: HCS endpoint AC50): 15.4 µM
minimal effective concentration ([22]; read-out: HCS endpoint MEC): 0.713 µM
Inhibition of rBsep cutoff<1& cmax u>.2 [12]: +VE
Inhibition of rBsep cutoff<3 [12]: +VE
Cmax [23]: 11.3 µM
DILI prediction HepaRG spheroids (HCS-MEC) [24]: +VE (key: +VE: MEC < 25 × Cmax.tot cut-off)
Upcytes multi donor assay 14day data [13]: +VE
fu [25]: 0.050
Cluser analysis [14]: +VE
Structural based (HCI) [14]: +VE
DILI in vitro assay prediction, Persson (2013) ([14]; Structural based (HCI), HepG2, ref Persson et al. 2013): +VE

From PMC7395068, “The evolution of strategies to minimise the risk of human drug-induced liver injury (DILI) in drug discovery and development” (Archives of Toxicology, 2020)
